Assay results from patent US20170112896A1, “SMALL MOLECULE RAC OR RHO INHIBITORS” (Ohio State Innovation Foundation, priority 2014, published 2017).
“Also recorded” adds a separate entry of the source. Read-outs that look alike come from different tables or passages of the source. Square brackets hold non-standard residues; d marks the D form. Peptide text beside a SMILES is read from it. Phe(4-F) = N[C@@H](Cc1ccc(F)cc1)C(=O)O; d2Nal = N[C@H](Cc1ccc2ccccc2c1)C(=O)O; dNle = CCCC[C@@H](N)C(=O)O

How the values were obtained:
[1] = test system: EGF receptor phosphorylation; test: IP/Western blot of EGFR phosphorylation; assay type: cell-based; conditions: 13 μM
Description: (§1) Two well characterized Ras effector pathways are the Raf-Mek-Erk and PI3K-Akt signaling pathways (Karnoub, A. E. et al. (2008) Nat Rev. Mol. Cell Biol. 9:517). To determine whether the cyclic peptides inhibited the intracellular Ras activity, Applicant monitored the phosphorylation levels of Mek, Erk, and Akt in cells before and after treatment with the Ras inhibitors. […] In order to rule out that the observed downregulation of P-Mek, P-Erk and P-Akt is caused by inhibition of EGFR signaling, the effect of Cyclosrasin 9A5 on the phosphorylation of the EGFR was tested by performing an IP/Western Blot experiment (FIG. 3E). Active, signaling EGFR is highly autohophosphorylated.

[2] = test system: Akt, Mek and Erk phosphorylation in H1650 cells; test: Western blot of Akt, Mek, Erk phosphorylation in H1650 cells; assay type: cell-based; conditions: 10 μM, 10 min
[3] = test system: Akt, Mek and Erk phosphorylation in H1975 cells; test: Western blot of Akt, Mek, Erk phosphorylation in H1975 cells; assay type: cell-based; conditions: 10 μM, 10 min
[4] = test system: actin filaments in A549 cells; test: Actin filament staining (phalloidin-FITC) and cell morphology; assay type: cell-based; conditions: cells exposed to peptide
[5] = test system: Akt, Mek and Erk phosphorylation in A549 cells; test: Western blot of Akt, Mek, Erk phosphorylation in A549 cells; assay type: cell-based; conditions: 10 μM, 10 min
[6] = test system: Akt, Mek and Erk phosphorylation in H1299 cells; test: Western blot of Ras signaling (Akt, Mek, Erk phosphorylation) in H1299 cells; assay type: cell-based; conditions: for IC50: 10 min treatment
Description: as §1

[7] = test system: Rac and Rho signaling (cofilin, Paxilin, FAK, Mek Ser298, c-Raf Ser338) in H1299 cells; test: Western blot of effector proteins of Rac and Rho signaling in H1299 cells; assay type: cell-based; conditions: 13 μM
[8] = target: T1, Ras(G12V)-Raf RBD interaction (Homo sapiens, UniProt P01116, G12V); test: HTRF assay, inhibition of Ras-Raf RBD interaction; assay type: binding; conditions: relative to 9A1
T1 construct: The G12V mutant K-Ras (amino acids 1-185) was recombinantly fused to glutathione 5-transferase (GST) at its N-terminus; GST (N, cleaved yes); made in house; host or cells: Escherichia coli BL21
T1 sequence (P01116 1-185 isoform P01116-2 G12V): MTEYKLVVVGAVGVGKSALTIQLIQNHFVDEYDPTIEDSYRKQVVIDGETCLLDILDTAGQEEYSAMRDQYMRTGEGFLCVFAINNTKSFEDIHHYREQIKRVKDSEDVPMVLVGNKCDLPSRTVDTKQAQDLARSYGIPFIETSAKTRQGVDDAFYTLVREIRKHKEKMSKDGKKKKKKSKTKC
Description: Recombinant HA-tagged K-Ras (no GST, 50 nM), GST-Raf RBD (50 nM each), a monoclonal anti-HA antibody labeled with acceptor d2 (2 μg/mL), a monoclonal anti-GST antibody labeled with donor Tb (0.25 μg/mL) (Cisbio), and increasing concentrations of cyclic peptide (0-20 μM) were mixed in PBS (total volume of 20 μL) in a 384-well plate. The plate was incubated overnight at 4° C. and the HTRF signal was measured on a Molecular Devices Spectramax M5 or a Tecan infinite M1000 Pro plate reader. The data were analyzed by Prism 6.0 from Graphpad Software, Inc. (La Jolla, Calif.) and IC50 values were obtained by fitting the data to dose-response-inhibition curve.

CCCC[C@H]1NC(=O)[C@H](Cc2ccc(F)cc2)NC(=O)[C@H](CCCNC(=N)N)NC(=O)[C@@H](Cc2ccc3ccccc3c2)NC(=O)[C@H](CCCNC(=N)N)NC(=O)[C@H](CCCNC(=N)N)NC(=O)[C@H](CCCNC(=N)N)NC(=O)[C@@H](C)NC(=O)[C@H]([C@@H](C)O)NC(=O)[C@H](Cc2c[nH]c3ccccc23)NC(=O)[C@H](CCC(N)=O)NC1=O [Cyclorasin 9A5, (Trp-Thr-ala-Arg-Arg-Arg-nal-Arg-Fpa-nle-Gln)] (cyclo(WT[dA]RRR[d2Nal]R[Phe(4-F)][dNle]Q))
EGFR phosphorylation level [1]: does no affect; also recorded: no effect
Mek, Erk and Akt phosphorylation [2]: almost completely abolished; also recorded: can be inhibited
Mek, Erk and Akt phosphorylation [3]: almost completely abolished; also recorded: can be inhibited
cell morphology [4]: rapid morphological changes
Mek, Erk and Akt phosphorylation [5]: significant Mek and Erk phosphorylation remained
basal phosphorylation of Mek and Akt ([6]; H1299 cells unstimulated with EGF, 10 μM for 10 min): inhibited
Mek, Erk and Akt phosphorylation ([6]; H1299 cells, 10 μM, 10 min): almost completely abolished
EGF-induced phosphorylation of Akt and Mek ([6]; H1299 cells, 13 μM, 5 min): significant reduction
phosphorylation level of Erk ([6]; H1299 cells, 13 μM, time course): decreased, but to a lesser extent and at a later time point
EGF-induced phosphorylation of Akt and Mek ([6]; H1299 cells, 13 μM, ≧10 min): completely abolished
IC50 ([6]; H1299 cells, read-out: IC50, inhibition of Akt phosphorylation): ~5 µM
IC50 ([6]; H1299 cells, read-out: IC50, inhibition of Mek phosphorylation): ~5 µM
phosphorylation of Paxilin (Tyr118), FAK (Tyr397), Mek (Ser298) and c-Raf (Ser338) [7]: dephosphorylated
phosphorylation of cofilin [7]: decreased
cell permeability / intracellular fluorescence (A549 lung cancer cells): improved cell permeability
higher potency than 9A1 against K-Ras [8]: 3 fold
